One series deals with SSTR. The following applies: five patients with primary EBV-positive NPC; cited from earlier work.
Series [1] relates to SSTR2 expression in C666-1 cells. Put plainly: SSTR2 expression in C666-1 cells under pathway inhibitors. Type of series: cell-based.
Series [2] has as its system LMP1-induced SSTR2 expression in NP69 cells. The series is described as follows: LMP1-induced SSTR2 expression in NP69 cells under pathway inhibitors. Type of series: cell-based, human. The following applies: NP69 cells expressing LMP1. The source says:
FIGS. 2A-2K. EBV infection is associated with SSTR2 upregulation in NPC—in vitro experiments and external validation dataset. a Immunofluorescence analysis of EBNA1 (red) and SSTR2 (green) expression in two representative examples of cultured primary respiratory epithelial cells before and after infection with the epitheliotropic M81 EBV strain. Nuclei are counterstained with DAPI (blue); Replication (n=5). b Percentages of cells positive for EBNA1 or co-expression of SSTR2 and EBNA1 c LMP1 induces SSTR2 expression in NP69, an immortalized normal nasopharyngeal epithelial cell line (relative quantities of SSTR2 were calculated using the comparative threshold cycle method and normalized using human beta-actin as endogenous control. Data is presented as a ratio relative to vector control). d LMP1-mediated SSTR2 induction in NP69 cells is inhibited by ectopic expression of TRAF3, a negative regulator of NF-κB. e In NP69 cells, LMP1-induced SSTR2 expression is suppressed by the NF-κB inhibitor BAY 11-7085 and MEK inhibitor U0126. f Both CTAR1 and CTAR2 regions of LMP1 (FIG. 6) are essential for LMP1-mediated SSTR2 induction. […] The color of the samples is based on unsupervised hierarchical clustering. […] Middle panel, Microarray SSTR2 expression is positively correlated with viral LMP1 expression (W=129, p=0.041, Wilcoxon two-sided test). […]

Series [3] relates to C666-1 cells. Put plainly: RNA-seq analysis of C666-1 cells treated with SSTR2-targeted drugs. Type of series: cell-based. The following applies: for cell senescence pathways (geneset enrichment) / pathways related to somatostatin biology such as interleukin signaling (geneset enrichment) / cell death/apoptotic pathways (geneset enrichment): 24 h post-treatment; for cell death/apoptotic pathways (geneset enrichment): lanreotide or octreotide; for SSTR2 expression (RNA-seq): lanreotide or octreotide treatment. The protocol: RNA-seq analysis. C666-1 cells were seeded at a density of 1×10^6/well in six-well plates 2 days prior to compound addition. […] Untreated and DMSO-treated (1:2000 in medium) wells were used as controls. 24 and 72 h post-PEN-221 addition, DNA and RNA extraction was performed from separate wells using Quick-DNA Plus and Direct-zol RNA Plus Kit (Zymo Research, Irvine, CA, USA) according to the manufacturers' instructions.
RNA concentration was normalized to 100 ng/50 μl and Illumina libraries prepared using a NEBNext Poly(A) mRNA Magnetic Isolation Module in conjunction with a NEBNext Ultra II Directional RNA Library Prep Kit (New England Biolabs), according to the manufacturer's instructions using adapters diluted 1:50. Libraries were quantitated using the Agilent High Sensitivity D1000 ScreenTape System on a 2200 Tapestation (Agilent), pooled at equimolar concentration, denatured and sequenced on a NextSeq 500 (Illumina). RNA sequencing transcript abundance was estimated from fastq files using the reference-free quantification tool salmon with the gencode GRCh37 transcript annotation. Differential expression analysis was performed using DESeq237 with treatment, time and batch (where applicable) as covariates. Geneset enrichment analysis was performed using the GSEA function from clusterProfiler, with the reactome database pathways on the gene DESeq2 Wald statistics and a minimum and maximum pathway size of 25 and 500, respectively.

In series [4] the test system is C666-1 cells. Put plainly: MTT-based cell viability assay (in vitro proliferation/survival). The following applies: 7 days, dilutions starting from 10 μM. The protocol:
(§1) Culture of the cell lines. C666-1 cells were cultured in RPMI-1640 with 25 mM Hepes (Lonza, Berlin, Germany) supplemented with 10% heat-inactivated FCS (Gibco, Carlsbad, CA), 2 mM L-Glutamine, 100 units/ml penicillin (Gibco), and 0.1 mg/ml streptomycin (Gibco). Cells were maintained at 37° C., 5% CO2 and passaged every 7 days at a 1:2 ratio using accutase (Sigma, St. Louis, MO, USA). Seventy-five percent of culture medium was replaced by fresh medium every 2-3 days. NPC43 and C17 cell lines were cultured in RPMI-1640 with 25 mM Hepes (Lonza, Berlin, Germany) supplemented with 10% heat-inactivated FCS (Gibco, Carlsbad, CA), 2 mM L-Glutamine, 100 units/ml penicillin (Gibco) and 0.1 mg/ml streptomycin (Gibco) and 4 μM Y27632 (Promocell, Heidelberg, Germany). Cells were maintained at 37° C., 5% CO2 and passaged 5 days at a 1:4 ratio using accutase (Sigma, St. Louis, MO, USA). Culture medium was replaced by fresh medium every 2 to 3 days.
(§2) MTT-based cell viability assay. Two days prior addition of test compounds, NPC cells were plated at a density of 2×10^4 cells/well in 96-well plates. Compounds were prepared as advised by manufacturers, diluted half logarithmic in medium and added to the wells in quadruplicate starting from 10 μM (30 μM for cisplatin). PEN-211 containing medium was removed after 2 h, cells were washed with PBS and fresh medium was added. Plates were incubated in a humified chamber for 7 days; 50% of medium were exchanged every other day with fresh drug dilutions. MTT (3-[4,5-dimethylthiazol-2-yl]-2,5 diphenyl tetrazolium bromide) reagent (20 μl/well of 5 mg/ml solution) (Sigma-Aldrich) was added and solubilized after 4 h using 100 μl of a […] SDS/0.01M HCl solution. Dual absorbance was measured after 5 h in a microplate reader (Epoch BioTek, BioTek Instruments, Bad Friedrichshall, Germany) using 550 nm as measurement and 655 nm as reference filter. After subtraction of background absorbance, fractions of surviving cells were obtained by normalization to the mean of nontreated samples.

The next series has as its system NPC43 cells. The description is as above. The following applies: 7 days, dilutions starting from 10 μM. The procedure:
as §1, §2

These results are taken from patent publication US20230405156A1, “METHODS OF DIAGNOSING AND PROGNOSING CANCERS OF THE HEAD AND NECK” (priority 2021, published 2023).

Take `C[C@@H](O)[C@@H]1NC(=O)[C@H](CCCCN)NC(=O)[C@@H](Cc2c[nH]c3ccccc23)NC(=O)[C@H](Cc2ccc(O)cc2)NC(=O)[C@@H](NC(=O)[C@@H](Cc2ccccc2)NC(=O)CN2CCN(CC(=O)[O-])CCN(CC(=O)[O-])CCN(CC(=O)[O-])CC2)CSSC[C@@H](C(=O)N[C@H](CO)[C@@H](C)O)NC1=O.[68Ga+3]` [68Ga-DOTA-(Tyr3)-octreotide, ^68Ga-labeled 1,4,7,10-tetraazacyclododecane-N,N9,N99,N999 tetraacetic acid-D-Phe1-Tyr3-octreotide (DOTA-TOC)]: the tumor uptake entry in the series with SSTR is listed as “increased uptake”.

For `CC(C)(C)c1ccc(S(=O)(=O)/C=C/C#N)cc1` [BAY 11-7085], the SSTR2 expression result in series [1] was “suppressed”. In series [2], the “LMP1-induced SSTR2 expression” value is “suppressed”.

Consider `N#CC(=C(/N)Sc1ccccc1N)/C(C#N)=C(\N)Sc1ccccc1N` [U0126], for which, in series [1], the SSTR2 expression entry was “suppressed”. Besides, the “LMP1-induced SSTR2 expression” value in series [2] was “suppressed”.

As to `CC(C)[C@@H]1NC(=O)[C@H](CCCCN)NC(=O)[C@@H](Cc2c[nH]c3ccccc23)NC(=O)[C@H](Cc2ccc(O)cc2)NC(=O)[C@@H](NC(=O)[C@H](N)Cc2ccc3ccccc3c2)CSSC[C@@H](C(=O)N[C@H](C(N)=O)[C@@H](C)O)NC1=O` [lanreotide], in the series with C666-1 cells [3], the “cell senescence pathways (geneset enrichment)” value (from here on “cell senescence pathways”) is on record as “upregulation of senescence pathways”, the “pathways related to somatostatin biology such as interleukin signaling (geneset enrichment)” value is on record as “induced upregulation”, the “cell death/apoptotic pathways (geneset enrichment)” value is “no changes” and the “SSTR2 expression (RNA-seq)” value is on record as “did not affect SSTR2 expression”. Moreover, the “cell senescence pathways” value with C666-1 cells [3] (listed as Lanreotide) is reported as “upregulation of cell senescence pathways”. In addition, the in vitro proliferation entry with C666-1 cells [4] is “did not affect in vitro proliferation”. In addition, in the series on NPC43 cells, the in vitro proliferation result is listed as “did not affect in vitro proliferation”.

Take `C[C@@H](O)[C@@H]1NC(=O)[C@H](CCCCN)NC(=O)[C@@H](Cc2c[nH]c3ccccc23)NC(=O)[C@H](Cc2ccccc2)NC(=O)[C@@H](NC(=O)[C@H](N)Cc2ccccc2)CSSC[C@@H](C(=O)N[C@H](CO)[C@@H](C)O)NC1=O` [octreotide]: in the series with C666-1 cells [3], the “cell senescence pathways” value was “upregulation of cell senescence pathways”, the “pathways related to somatostatin biology such as interleukin signaling (geneset enrichment)” value was “induced upregulation”, the “cell death/apoptotic pathways (geneset enrichment)” value was “no changes” and the “SSTR2 expression (RNA-seq)” value is recorded as “did not affect SSTR2 expression”. In addition, the in vitro proliferation result in the series on C666-1 cells [4] is “did not affect in vitro proliferation”. The in vitro proliferation entry in the series on NPC43 cells is listed as “did not affect in vitro proliferation”.
